Patent US11896609B2, “Pharmaceutical composition for treating inflammatory diseases comprising germanium telluride nanosheets coated with polyvinylpyrrolidone” (Industry-Academic Cooperation Foundation, priority 2021, dated 2024)

Experiments:
[1] = IVIS fluorescence imaging biodistribution after oral administration; assay type: in vivo, mice; conditions: 5 mg/kg oral, IVIS at 1, 6 and 24 hours
Experimental: After GeTe-PVP NSs (5 mg/kg, 100 μl) or an ICG solution (5 mg/kg, 200 μl) were orally administered, the mice were subjected to laparotomy at 1, 6, and 24 hours, and the biodistribution of GeTe-PVP NSs and the ICG solution was photographed with an in vivo imaging system (IVIS). Furthermore, the stomach, intestine, liver, lungs, pancreas, heart, and kidneys were removed at each time to confirm their biodistribution by fluorescence imaging with IVIS and quantify the amounts of GeTe-PVP NSs and ICG accumulated in each organ by FL intensity.

[2] = test system: DSS-induced colitis model; test: DSS-induced inflammatory bowel disease (colitis) model; assay type: in vivo, C57BL/6 mice
Experimental: 7- to 8-week-old male C57BL/6 mice (Orient Bio Inc.; Seongnam, Korea) were used for the experiments. Colitis was induced by allowing an acute inflammatory bowel disease model to ingest drinking water to which 2% dextran sodium sulfate (DSS; MP Biochemical, Irvine, Ca, USA) was added for 7 days. A normal control group was allowed to ingest the same amount of water for the same time (FIG. 19).
The experimental groups were classified into the following four groups (Table 1): a normal control group (Group 1, n=8), a group in which colitis is induced by DSS (Group 2, n=8), a group in which sulfasalazine (SAZ), which is a common therapeutic agent, was administered to a DSS-induced colitis model (Group 3, n=8, SAZ=200 mg/kg/day), and a group in which GeTe-PVP NSs were administered to a DSS-induced colitis model (Group 4, n=8, GeTe-PVP NS=5 mg/kg/day).
Body weight changes and the disease activity index (DAI) of mice were confirmed every day for 7 days. Each score of weight loss index (0 to 4; FIG. 20A), rectal bleeding observed with the naked eye in the stool or anus (0 to 3; FIG. 20C), and stool consistency (0 to 3; FIG. 20B) is summed to evaluate the disease activity index on a 10-point scale (FIG. 20D). [Stevceva L, Pavli P, Husband A, Ramsay A, Doe WF. Dextran sulphate sodium-induced colitis is ameliorated in interleukin 4 deficient mice. Genes Immun 2001; 2:309-316.] […]

Structure (SMILES) | time after administration until which a large amount remained in the intestine (FL intensity) [1] [h] | disease activity index (DAI) compared to DSS group (Group 2) ([2]; DSS colitis mice, SAZ 200 mg/kg/day, GeTe-PVP NS 5 mg/kg/day) | inflammatory findings (H&E, PAS staining) ([2]; proximal and distal regions of excised intestine)
CC1(C)C(/C=C/C=C/C=C/C=C2\N(CCCCS(=O)(=O)O)c3ccc4ccccc4c3C2(C)C)=[N+](CCCCS(=O)(=O)[O-])c2ccc3ccccc3c21 [ICG solution, Indocyanine green] | ≤ 1 |  | 
O=C(O)c1cc(/N=N/c2ccc(S(=O)(=O)Nc3ccccn3)cc2)ccc1O [sulfasalazine] |  | lower DAI compared to Group 2 | many inflammatory findings were not found
